Measured values: patent US8129499B2 (priority 2008, dated 2012)
Like-named read-outs stand apart in the source and are kept apart here. Residues, ends and D or L forms follow the SMILES beside them. No end group written: not given here.

Legend:
purified PR/8 virus = tested on: purified PR/8 virus; parameters: species or system influenza virus A/PuertoRico/8/34 (PR/8, H1N1)
cRBCs = conditions: for effect on cRBC membrane integrity: at any concentration (1-30 μM), in words
MDCK cells = conditions: 5-75 μM peptide, 24 hours, in words
in vitro = conditions: dog, MDCK cells
[1] = 10 μM peptide, 64 HA units of purified A/PR/8/34, Yes/No
[2] = 10 μM peptide, mock treated virus (64 HAU) = 100% hemagglutination
[3] = 0.1-10 μM peptide, 64 HA units purified PR/8, estimated from dose response curves (Table 3)

Compound	HA inhibition (purified A/PR/8/34)	% inhibition (purified A/PR/8/34; 10 μM) [%]	also measured
O=C(CCCCCCC(=O)ON1C(=O)CCC1=O)ON1C(=O)CCC1=O [DSS, disuccinimidyl suberate, reference compound]			virion aggregation by electron microscopy (purified PR/8 virus): large aggregates
N=C(N)NCCC[C@H](NC(=O)[C@@H](N)CCCNC(=N)N)C(=O)N[C@@H](CCCCN)C(=O)N[C@@H](CCCCN)C(=O)O [SEQ. ID. NO: 17, RRKK] (H-RRKK-OH; N-terminus and C-terminus assumed)	No	0	antiviral activity (purified A/PR/8/34): no antiviral activity
EEDDLAVLLALLA [SEQ ID NO: 54, EEDDLAVLLALLA]		0	
KKLAVLLALLA [SEQ ID NO: 53, KKLAVLLALLA]		0	
KLAVLLALLA [SEQ ID NO: 52, KLAVLLALLA]		25	
RKAVLLALLA [SEQ ID NO: 51, RKAVLLALLA]		50	viral hemagglutination activity (FIG. 7) (purified A/PR/8/34): detected to a lesser extent
RKKLAVLLALLA [SEQ ID NO: 50, RKKLAVLLALLA]		75	EC50 (purified A/PR/8/34): 8 µM; viral hemagglutination activity (FIG. 7) (purified A/PR/8/34): detected to a lesser extent
RRKKA [SEQ. ID. NO: 16, RRKKA]	No	0	
RRKKAA [SEQ. ID. NO: 15, RRKKAA]	No	0	
RRKKAAAAAAAAA [SEQ ID NO: 49, RRKKAAAAAAAAA]		87.5	EC50 (purified A/PR/8/34): ~7 µM; viral hemagglutination activity (FIG. 7) (purified A/PR/8/34): detected to a lesser extent
RRKKAALLVLAALAVLA [SEQ. ID. NO: 30, RRKKAALLVLAALAVLA]	No	0	
RRKKAAV [SEQ. ID. NO: 14, RRKKAAV]	No	0	
RRKKAAVA [SEQ. ID. NO: 13, RRKKAAVA]	No	0	
RRKKAAVAL [SEQ. ID. NO: 12, RRKKAAVAL]	No	0	
RRKKAAVALL [SEQ. ID. NO: 11, RRKKAAVALL]	No	0	
RRKKAAVALLAVLLALLA [SEQ. ID. NO: 43, RRKKAAVALLAVLLALLA]			HA inhibition (purified A/PR/8/34; [1]): Yes; % inhibition (purified A/PR/8/34; [2]): 95±2%; EC50 (purified A/PR/8/34; [3]): 1.6 ± 1.2 µM
RRKKAAVALLP [SEQ. ID. NO: 10, RRKKAAVALLP]	No	4 ± 8	
RRKKAAVALLPA [SEQ. ID. NO: 9, RRKKAAVALLPA]	No	0	
RRKKAAVALLPAV [SEQ. ID. NO: 8, RRKKAAVALLPAV]	No	0	
RRKKAAVALLPAVL [SEQ. ID. NO: 7, RRKKAAVALLPAVL]	No	0	
RRKKAAVALLPAVLL [SEQ. ID. NO: 6, RRKKAAVALLPAVLL]	No	0	
RRKKAAVALLPAVLLA [SEQ. ID. NO: 5, RRKKAAVALLPAVLLA]	Yes	96 ± 3	EC50 (purified A/PR/8/34): 2.8 ± 1.1 µM

Compound	HA inhibition (purified A/PR/8/34)	% inhibition (purified A/PR/8/34; 10 μM) [%]	also measured
RRKKAAVALLPAVLLAL [SEQ. ID. NO: 4, RRKKAAVALLPAVLLAL]	Yes	89 ± 3	EC50 (purified A/PR/8/34): 3.8 ± 1.9 µM
RRKKAAVALLPAVLLALL [SEQ. ID. NO: 3, RRKKAAVALLPAVLLALL]			HA inhibition (purified A/PR/8/34; [1]): Yes; % inhibition (purified A/PR/8/34; [2]): 95 ± 2%; EC50 (purified A/PR/8/34; [3]): 0.6 ± 0.3 µM
RRKKAAVALLPAVLLALLA [SEQ. ID. NO: 2, RRKKAAVALLPAVLLALLA]			HA inhibition (purified A/PR/8/34; [1]): Yes; % inhibition (purified A/PR/8/34; [2]): 94 ± 2%; EC50 (purified A/PR/8/34; [3]): 0.5 ± 0.3 µM
RRKKAAVALLPAVLLALLAP [EB, reference compound]			effect on cRBC membrane integrity (cRBCs): no effect; % inhibition (purified A/PR/8/34; [2]): 95 ± 2%; % inhibition (purified A/PR/8/34; 10 μM peptide, normalized to EB-treated (10 μM EB) virus (64 HAU) = 100% inhibition (Table 4)): 100%; EC50 (purified A/PR/8/34; [3]): 2.6 µM; EC50 (purified A/PR/8/34; Example 6, Table 4): 2 µM; toxicity against MDCK cells (MDCK cells): limited toxicity
RRKKALLAP [SEQ. ID. NO: 25, RRKKALLAP]	No	0	
RRKKALLPAVLLALLAP [SEQ. ID. NO: 20, RRKKALLPAVLLALLAP]	Yes	94 ± 3	EC50 (purified A/PR/8/34): 0.7 ± 0.3 µM
RRKKAP [SEQ. ID. NO: 28, RRKKAP]	No	0	
RRKKAVALLPAVLLALLAP [SEQ. ID. NO: 18, RRKKAVALLPAVLLALLAP]			HA inhibition (purified A/PR/8/34; [1]): Yes; % inhibition (purified A/PR/8/34; [2]): 94 ± 6%; EC50 (purified A/PR/8/34; [3]): 0.8 ± 0.3 µM
RRKKLAALPLVLAAPLAVLA [EBX, reference compound]		0	effect on cRBC membrane integrity (cRBCs): no effect
RRKKLAP [SEQ. ID. NO: 27, RRKKLAP]	No	0	
RRKKLAVAAALLA [SEQ ID NO: 55, RRKKLAVAAALLA]		0	
RRKKLAVLLAAAA [SEQ ID NO: 56, RRKKLAVLLAAAA]		0	
RRKKLAVLLALLA [SEQ. ID. NO: 45, RRKKLAVLLALLA]	Yes		virion aggregation by electron microscopy (purified PR/8 virus): large aggregates; EC50 (purified A/PR/8/34): 3 µM
RRKKLLALLAP [SEQ. ID. NO: 24, RRKKLLALLAP]	No	0	
RRKKLLAP [SEQ. ID. NO: 26, RRKKLLAP]	No	0	
RRKKLLAVLLALLA [SEQ ID NO: 44, RRKKLLAVLLALLA]	Yes	95±2	EC50 (purified A/PR/8/34): 3 µM
RRKKLLPAVLLALLAP [SEQ. ID. NO: 21, RRKKLLPAVLLALLAP]	Yes	94 ± 4	EC50 (purified A/PR/8/34): 0.8 ± 0.3 µM
RRKKLPAVLLALLAP [SEQ. ID. NO: 22, RRKKLPAVLLALLAP]	Yes		viral hemagglutination activity (FIG. 7) (purified A/PR/8/34): the same as that for the EB peptide
RRKKP [SEQ. ID. NO: 29, RRKKP]	No	0	
RRKKVALLAVLLALLA [SEQ. ID. NO: 32, RRKKVALLAVLLALLA]		94 ± 4	lysis (hemoglobin release) compared to SDS treated control (cRBCs; 10 μM peptide): 71%; lysis (hemoglobin release) compared to SDS treated control (cRBCs; 30 μM peptide): 100%; concentration inducing hemoglobin release (cRBCs; 0.5% cRBC, 1 hour at 37° C.): exceeding 5 μM; EC50 (purified A/PR/8/34): 0.5 ± 0.5 µM; viability at 24 h, 75 µM (in vitro): 20%; toxicity against MDCK cells (MDCK cells): significant toxicity
RRKKVALLPAVLLALLAP [SEQ. ID. NO: 19, RRKKVALLPAVLLALLAP]			HA inhibition (purified A/PR/8/34; [1]): Yes; % inhibition (purified A/PR/8/34; [2]): 94 ± 4%; EC50 (purified A/PR/8/34; [3]): 0.5 ± 0.4 µM
RRKKVLLALLAP [SEQ. ID. NO: 23, RRKKVLLALLAP]	Yes	90 ± 4	EC50 (purified A/PR/8/34): 4 ± 0.8 µM
